Measured values published in patent US20090253704A1, “PYRROLOTRIAZINONE DERIVATIVES FOR USE AS STEAROYL CoA DESATURASE INHIBITORS” (priority 2008, published 2009).

biological target: T1, Stearoyl-CoA desaturase (SCD) (Rattus norvegicus, UniProt P07308); test: SCD assay in rat liver microsomes ([3H]stearoyl CoA desaturation, adapted from Talamo and Bloch); assay type: biochemical; settings: rat liver microsomes 0.2 mg/ml final, 30 min preincubation, 45 min reaction at room temperature
T1 construct: from tissue; host or cells: liver microsomes of male Sprague Dawley rats, SCD induced by carbohydrate-rich diet
T1 sequence (P07308 1-358): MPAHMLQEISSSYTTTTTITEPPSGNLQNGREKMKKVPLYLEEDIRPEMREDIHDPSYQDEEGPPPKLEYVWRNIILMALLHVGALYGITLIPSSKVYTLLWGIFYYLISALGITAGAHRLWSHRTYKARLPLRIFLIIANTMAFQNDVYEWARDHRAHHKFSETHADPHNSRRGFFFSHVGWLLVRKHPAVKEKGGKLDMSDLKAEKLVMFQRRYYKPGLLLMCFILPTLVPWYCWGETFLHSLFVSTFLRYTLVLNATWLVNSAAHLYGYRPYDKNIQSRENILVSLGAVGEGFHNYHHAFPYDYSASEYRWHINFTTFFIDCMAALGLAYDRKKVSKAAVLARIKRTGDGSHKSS
Excerpt: The identification of compounds of the invention as SCD inhibitors was readily accomplished using the SCD enzyme and microsomal assay procedure described in Talamo and Bloch (1969) Analytical Biochemistry 29:300-304.
The rat liver microsomes were collected according to the procedure described in Ozols (1990) Methods Enzm, 182:225.
Male Spraque Dawley Rats were placed on regimented fasting protocol for one week to stimulate SCD enzymatic activity. 48-hour periods were alternated between feeding and fasting to induce and down-regulate SCD activity with SCD activity being induced via carbohydrate rich diet prior to liver perfusion and collection.
The rats were anesthetized with Isoflurane inhalation anesthetic, the liver perfused with cold phosphate buffered saline (PBS), weighed, and chilled in cold homogenization buffer (250 mM sucrose, 10 mM Tris, 1 mM EDTA, pH 7.6).
The livers were finely minced and placed in homogenization tube. Homogenization buffer (40 mL) was added to the homogenization tube and the liver homogenized and centrifuged in a pre-chilled […] for 10 min at 4° C.
Following centrifugation, the supernatant was collected and the pellet removed and discarded. The supernatant was centrifuge at 10,000 G for 35 minutes. Following centrifugation, the supernatant was collect and the pellet discarded. The supernatant was then centrifuged in a pre-chilled 45-Ti rotor at 130,000 G (41,000 RPM) for 90 minutes at 4° C.
The supernatant was then aspirated off and the collected microsomal pellet washed in 25 mL of Glycerol PBS (1×PBS 7.4, 20% Glycerol) and resuspended in 4-5 volumes of Glycerol PBS.
The protein concentration of the microsomal preparation was determined by BCA assay (Pierce) and the microsomes were aliquoted and stored at −80° C.
Biobeads were ground to a smaller size in a mortar and pestle and resuspended in 3.6% TCA. The beads were then filtered through […] mesh.
SCD was determined in the desaturase assay buffer. This assay buffer contained 0.1 M Tris buffer, pH 7.2, 2 mM NADH, 4.8 mM ATP, 0.5 mM CoA, 4.8 mM MgCl2, and 0.1% BSA.
The Procedure for the SCD Assay (Adapted from Talamo and Bloch (1969) Analytical Biochemistry 29:300-304)
1 μl of each compound of Formula I was added to an assay plate by a low volume (0.5-10 μL) multichannel pipette. A DMSO control was also prepared. The microsomes were quickly thawed and added to assay buffer so that a concentration of 0.4 mg/ml was achieved (0.2 mg/ml assay final). 50 μl of the microsome suspension in assay buffer was then added into each well in the compound assay plate, the plate was covered, and the microsomes preincubated with the compounds for 30 minutes on the orbital shaker, 50-75 rpm, at room temperature.
After preincubation, the reaction was initiated by the addition of 50 μl of substrate solution (20 μM Stearoyl CoA, [3H]Stearoyl CoA, 74 nCi) to the preincubated microsomes/compound suspensions in MilliQ (Millipore) H2O. The reaction mixtures were then incubated for 45 minutes on the orbital shaker at 50-75 rpm at room temperature.
The reaction was terminated by the addition of 10 μl of 21% trichloroacetic acid (TCA) to the reaction mixture followed incubation on the orbital shaker for 30 minutes at 50-75 rpm at room temperature followed by centrifugation for 5 minutes at 3700 rpm.
50 μl of a 6% Bio-Bead suspension in H2O was added to the reaction mixture and the assay plate was sealed. The Bio-Bead mixture was incubated on the orbital shaker for 1 hour, 100-150 rpm at room temperature, and then the mixture was centrifuged at 2000 g for 5 minutes to pellet the Bio-Beads.
25 μl of the supernatant was harvested from each well and transferred to a detection plate. 100 μl of OptiPhase SuperMix scintillation cocktail (containing sufficient NaOH to neutralize the TCA) was added and the solutions mixed by vigorous shaking (300-400 rpm) for 5 minutes at room temperature.

SMILES | IC50 [nM]
O=C(CO)Nc1cc2c(=O)n(CCOc3ccccc3Cl)cnn2c1 [N-(3-(2-(2-chlorophenoxy)ethyl)-4-oxo-3,4-dihydropyrrolo[1,2-f][1,2,4]triazin-6-yl)-2-hydroxyacetamide] | 5600
O=C(Nc1cc2c(=O)n(Cc3ccc(Cl)c(Cl)c3)cnn2c1)C(O)CO (stereo not drawn) [N-(3-(3,4-dichlorobenzyl)-4-oxo-3,4-dihydropyrrolo[1,2-f][1,2,4]triazin-6-yl)-2,3-dihydroxypropanamide] | 10
O=C(CO)Nc1cc2c(=O)n(Cc3ccc(Cl)c(Cl)c3)cnn2c1 [N-(3-(3,4-dichlorobenzyl)-4-oxo-3,4-dihydropyrrolo[1,2-f][1,2,4]triazin-6-yl)-2-hydroxyacetamide] | 250
CCCCCCC(=O)Nc1cc2c(=O)n(Cc3ccc(Cl)c(Cl)c3)cnn2c1 [N-(3-(3,4-dichlorobenzyl)-4-oxo-3,4-dihydropyrrolo[1,2-f][1,2,4]triazin-6-yl)heptanamide] | 27000
O=C(CO)Nc1cc2c(=O)n(CCCOc3cc(Cl)ccc3Cl)cnn2c1 [N-(3-(3-(2,5-dichlorophenoxy)propyl)-4-oxo-3,4-dihydropyrrolo[1,2-f][1,2,4]triazin-6-yl)-2-hydroxyacetamide] | 240
O=C(CO)Nc1cc2c(=O)n(Cc3ccc(Cl)c(C(F)(F)F)c3)cnn2c1 [N-(3-(4-chloro-3-(trifluoromethyl)benzyl)-4-oxo-3,4-dihydropyrrolo[1,2-f][1,2,4]triazin-6-yl)-2-hydroxyacetamide] | 320
O=C(Nc1cc2c(=O)n(CCc3ccc(Cl)cc3)cnn2c1)C(O)CO (stereo not drawn) [N-(3-(4-chlorophenethyl)-4-oxo-3,4-dihydropyrrolo[1,2-f][1,2,4]triazin-6-yl)-2,3-dihydroxypropanamide] | 830
O=C(CO)Nc1cc2c(=O)n(CCc3ccc(Cl)cc3)cnn2c1 [N-(3-(4-chlorophenethyl)-4-oxo-3,4-dihydropyrrolo[1,2-f][1,2,4]triazin-6-yl)-2-hydroxyacetamide] | 14000
O=C(Nc1cc2c(=O)n(Cc3ccc(Cl)c(Cl)c3)cnn2c1)OCc1ccccc1 [benzyl 3-(3,4-dichlorobenzyl)-4-oxo-3,4-dihydropyrrolo[1,2-f][1,2,4]triazin-6-ylcarbamate] | 1600
